The nature of data set [1]: MTT: Cell Damaging and Protecting Effect Test. In kind it is cell-based, rabbit (male Japanese White). The following applies: rabbit, gastric corpus mucosa cells, final concentration 10^-4 M, smaller value is better, read-out: MTT: cell damaging rate. The gist of the method: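 Primary gastric corpus mucosal cells from male Japanese White rabbit, enzymatically dispersed and cultured 3 days to confluence. Compound at final 10^-4 M added with MTT for 4 h at 37 °C; formazan read at OD 570–630. Cell damaging rate (%) calculated against control absorbance.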

A further data set has as its system mice. Details: species or system mouse (male Slc:ICR). The note with it: mouse, in vivo. The method, then: AT: Single Dose Toxicity Pretest
Male Slc:ICR mice (5-week-old) were used. Each group has 3 to 5 mice and each mouse was fasted, but allowed free access to water, for 4 to 5 hours from 9 a.m. in the test day. Then, 2,000 mg/10 ml/kg of the sample compound dissolved or suspended in an aqueous solution of 0.5% sodium carboxymethyl cellulose was orally administered thereto. To a control, only the vehicle was administered. […] The body weight was measured before and after the fasting as well as at the same time everyday. The dead animals were immediately subjected to autopsy and their organs were observed by naked eyes. Also, the living animals were sacrificed with ether or carbon dioxide one week after the administration and then their organs were observed by naked eyes.
The toxicity at the single dose of 2,000 mg/kg of the sample compound was expressed as being classified into 5 levels.
5: mortality rate is 0%; no toxicity is found at all both in behavior and organs.
4: Mortality rate is 0%; while no toxicity is found in organs, slight toxicity is observed in behavior or body weight increase.
3: While there is a dead animal (though not all the animals are dead), no toxicity is found in organs.
2: Regardless of whether there is a dead animal or not, toxicity is found in organs.
1: All the animals are dead.

Data set [2] has as its system Helicobacter pyroli (HP NCTC 11637). The data set is described as follows: AHP: Antibacterial Activity Test Against Helicobacter pyroli (agar dilution). In kind it is cell-based, Helicobacter pyroli NCTC 11637. The procedure:
AHP: Antibacterial Activity Test Against Helicobacter pyroli The minimum inhibitory concentration (MIC) against Helicobacter pyroli (microacrophilic gram-negative bacterium which is supposed to deeply involve in pathogenesis, relapse, and recrudescence of ulcer, referred to as "HP" in the following) is measured so as to find out compounds which have antibacterial activity against Helicobacter pyroli. MICs were determined by the agar dilution method. The stock culture (-80° C.) of HP NCTC 11637 was thawed and cultured on tripticase soy agar supplemented with 5% sheep blood at 37° C. in an atmosphere of 5% O2, 10% CO2, and 85% N2. Grown colonies were transferred to the same plate and precultured for 3 days under the same condition. […] An appropriate amount of the colony grown on the plate by preculturing was suspended in Mueller Hinton broth till turbidness was recognizable by naked eyes, thereby yielding a bacterial suspension concentrate containing about 10^7 cfu/ml. […] 10 μl of the bacterial suspension for inoculation (about 10^3 cfu) was dropped by dispenser onto an MIC plate for inoculation and cultured for 7 days under the same condition as that of preculture. Thereafter, it was judged whether there had been bacteria growth or not. […] As the result of the comparison of these plates, when the number of the colony on the plate containing the sample compound was less than 90% with respect to that on the control plate, it was represented by "+". Contrary to this, when there was 90% or more, it was represented by "-".
In general terms: In agar dilution, organisms are placed on agar that contains the substance at set levels.

Seven molecules from US6001880A, “Alkylenediamine derivative, anti-ulcer drug, and antibacterial drug” (Shiseido Co., Ltd., priority 1997, dated 1999) can be followed below.

Regarding `CCN(CC)CCNC(=O)c1cc(OCC=C(C)C)cc(OCC=C(C)C)c1` [Example 14], the cytotoxicity at 4 h, 100 µM in data set [1] came out at 43%. Further, the “AT: single dose toxicity level” value in the data set with mice is given as 5.
As for `CCN(CC)CCNC(=O)c1cc(OC/C=C(\C)CCC=C(C)C)ccc1OC/C=C(\C)CCC=C(C)C` [Example 16], in data set [1], the cytotoxicity at 4 h, 100 µM is 40%. Besides, the “AT: single dose toxicity level” value in the data set on mice is 5.
For `CC(C)=CCC/C(C)=C/COc1ccc(OC/C=C(\C)CCC=C(C)C)c(C(=O)NCCN(C(C)C)C(C)C)c1` [Example 17], the MIC (in general, the lowest concentration that inhibits growth of the organism) in data set [2] (Helicobacter, NCTC11637, 168 h, agar dilution, HP NCTC 11637, 7 days) is less than 3.13 µg/mL. The cytotoxicity at 4 h, 100 µM in data set [1] came to 27%. Besides, the “AT: single dose toxicity level” value in the data set on mice is listed as 5.
For `CCN(CC=C(C)C)c1ccc(C(=O)NCCN(C(C)C)C(C)C)cc1` [Example 28], the “AHP: growth class where MIC was 100 μg/ml or more” value in data set [2] (MIC 100 μg/ml or more, colony number vs control plate, 250 mM solution of sample compound) is listed as “+ (the number of the colony on the plate containing the sample compound was less than 90% with respect to that on the control plate)”. Further, in data set [1], the cytotoxicity at 4 h, 100 µM was 16%.
Consider `CCN(CC)CCNC(=O)c1cc(OC)c(OC/C=C(\C)CCC=C(C)C)c(OC)c1` [Example 37], for which, in data set [1], the cytotoxicity at 4 h, 100 µM was found to be 39%. For the same molecule, in the data set on mice, the “AT: single dose toxicity level” value was 4.
For `CCN(CC)CCNC(=O)c1cc(OC)c(OC/C=C(/C)CCC=C(C)C)c(OC)c1` [Example 38] the same measures were 30% and 5.
For the molecule `COc1cc(C(=O)NCCN(C)C)cc(OC/C=C(\C)CCC=C(C)C)c1OC` [Example 42], the cytotoxicity at 4 h, 100 µM in data set [1] was 17%. The “AT: single dose toxicity level” value with mice came out at 3.
